# ChEMBL document CHEMBL5532671, “Leucosceptrane Sesterterpenoids as a New Type of Natural Immunosuppressive Agents in Treating Sepsis” (J Med Chem, 2024)
# The source made the active and inactive calls. The rule behind the calls is not given here.
# How the values were obtained:
# [1] = test system: T-cell; test: Immunosuppressive activity in C57BL/6 female mouse T-cells isolated from spleen assessed as inhibition of LPS-induced IFN-gamma secretion at 20 uM treated for 48 hrs by ELISA based assay relative to control; type: functional; settings: C57BL/6, T-cell
# [2] = test system: T-cell; test: Immunosuppressive activity in C57BL/6 female mouse T-cells isolated from spleen assessed as inhibition of LPS-induced IFN-gamma secretion treated for 48 hrs by ELISA based assay; type: functional; settings: C57BL/6, T-cell
# [3] = test system: T-cell; test: Inhibition of proliferation of C57BL/6 female mouse T-cells isolated from spleen at 20 uM relative to control; type: functional; settings: C57BL/6, T-cell
# [4] = test system: T-cell; test: Immunosuppressive activity in C57BL/6 female mouse T-cells isolated from spleen assessed as inhibition of LPS-induced IFN-gamma secretion at 1 uM treated for 48 hrs by ELISA based assay relative to control; type: functional; settings: C57BL/6, T-cell
# [5] = test system: T-cell; test: Inhibition of proliferation of C57BL/6 female mouse T-cells isolated from spleen at 1 uM relative to control; type: functional; settings: C57BL/6, T-cell
# [6] = test system: T-cell; test: Blocked of cell cycle progression in anti-CD3/CD28 stimulated C57BL/6 female mouse T-cells isolated from spleen assessed as increase in cells at G0/G1 phase at 5 to 20 uM measured after 48 hrs by flow cytometry assay; type: functional, cell-based; settings: dose 5-20 µM
# [7] = test system: T-cell; test: Blocked of cell cycle progression in anti-CD3/CD28 stimulated C57BL/6 female mouse T-cells isolated from spleen assessed as decrease in cells at S phase measured after 48 hrs by flow cytometry assay; type: functional, cell-based; settings: dose 5-20 µM
# [8] = test system: RAW264.7; test: Immunosuppressive activity in mouse RAW264.7 cells assessed as reduction in expression of P70S6K phosphorylation at 10 to 40 uM by Western blot analysis; type: functional, cell-based; settings: dose 10-40 µM
# [9] = test system: T-cell; test: Blocked of cell cycle progression in anti-CD3/CD28 stimulated C57BL/6 female mouse T-cells isolated from spleen assessed as increase in cells at G2/M phase measured after 48 hrs by flow cytometry assay; type: functional, cell-based; settings: dose 5-20 µM
# [10] = test system: RAW264.7; test: Immunosuppressive activity in mouse RAW264.7 cells assessed as reduction in expression of ERK phosphorylation at 10 to 40 uM by Western blot analysis; type: functional, cell-based; settings: dose 10-40 µM
# [11] = test system: T-cell; test: Inhibition of proliferation of C57BL/6 female mouse T-cells isolated from spleen; type: functional, cell-based; settings: C57BL/6, T-cell
# [12] = species: Mus musculus; test: Immunosuppressive activity in C57BL/6 female mouse T Cells isolated from spleen assessed as inhibition of anti-CD3/CD28-induced IFN-gamma secretion measured after 48 hrs by ELISA based assay relative to control; type: functional; settings: T-cell
# [13] = test system: RAW264.7; test: Immunosuppressive activity in mouse RAW264.7 cells assessed as reduction in expression of JNK phosphorylation at 10 to 40 uM by Western blot analysis; type: functional, cell-based; settings: dose 10-40 µM
# [14] = test system: RAW264.7; test: Inhibition of cytokine secretion in mouse RAW264.7 cells assessed as suppression of LPS-induced IL-6 secretion measured after 48 hrs by ELISA based assay; type: functional, cell-based; settings: dose 2.5-40 µM
# [15] = test system: RAW264.7; test: Inhibition of cytokine secretion in mouse RAW264.7 cells assessed as suppression of LPS-induced TNF-alpha secretion measured after 48 hrs by ELISA based assay; type: functional, cell-based; settings: dose 2.5-40 µM
# [16] = test system: RAW264.7; test: Antiproliferative activity against mouse RAW264.7 cells at 2.5 to 40 uM; type: toxicity, cell-based; settings: raw264.7, 40 µM, dose 2.5-40 µM
# [17] = species: Mus musculus; test: Antisepsis against LPS-induced sepsis mouse model assessed as increase in survival rate of mouse treated IG measured upto 24 hrs; type: functional, organism-based
# [18] = test system: Mus musculus; test: Reduction in TNF-alpha level in LPS-induced sepsis mouse model peripheral blood at 25 mg/kg, IG measured after 12 hrs by ELISA based assay; type: functional, organism-based
# [19] = test system: RAW264.7; test: Inhibition of cytokine secretion in mouse RAW264.7 cells assessed as suppression of LPS-induced TNF-alpha at 40 uM secretion measured after 48 hrs by ELISA based assay; type: functional, cell-based
# [20] = test system: Mus musculus; test: Antisepsis against LPS-induced sepsis mouse multiorgan damage model model assessed as reduction in multiorgan damage at 25 to 50 mg/kg, IG measured after 24 hrs by H and E staining assay; type: functional, organism-based; settings: dose 25-50 mg/kg
# [21] = test system: RAW264.7; test: Inhibition of cytokine secretion in mouse RAW264.7 cells assessed as suppression of LPS-induced IL-6 secretion at 40 uM measured after 48 hrs by ELISA based assay; type: functional, cell-based
# [22] = test system: Mus musculus; test: Reduction in IL-6 level in LPS-induced sepsis mouse model peripheral blood at 50 mg/kg, IG measured after 12 hrs by ELISA based assay; type: functional, organism-based
Structure (SMILES),inhibition at 20 µM [1] [%],IC50 [2] [µM],inhibition at 20 µM [3] [%],also measured
CC(C)=C[C@H]1O[C@@](C)(CCc2occc2C)[C@@H]2C(=O)[C@@H]3[C@@H](CC[C@@H]3C)[C@H](C)[C@@]21O,53.7,19.9,< 10,
C/C=C/C[C@@H](C)[C@@H](O)[C@H]1C(=O)N[C@@H](CC)C(=O)N(C)CC(=O)N(C)[C@@H](CC(C)C)C(=O)N[C@@H](C(C)C)C(=O)N(C)[C@@H](CC(C)C)C(=O)N[C@@H](C)C(=O)N[C@H](C)C(=O)N(C)[C@@H](CC(C)C)C(=O)N(C)[C@@H](CC(C)C)C(=O)N(C)[C@@H](C(C)C)C(=O)N1C [CYCLOSPORINE],,,,inhibition at 1 µM [4]: 99.2%; inhibition at 1 µM [5]: 36.7%
CC(C)=C[C@H]1O[C@@]2(C)C[C@H](c3occc3C)O[C@]13[C@H]2C(=O)[C@@]1(O)[C@@H](C)CC[C@H]1[C@@H]3C,57.7,22,18.6,
CC(C)=C[C@H]1O[C@@](C)(C[C@H]2C(=O)C(C)=C[C@@H]2O)[C@@H]2C(=O)[C@@]3(O)[C@@H](C)CC[C@H]3[C@H](C)[C@@]21O,57.3,11.6,11.8,
CC(C)=C[C@H]1O[C@@](C)(C/C=C2\NC(=O)C=C2C)C2=C1[C@@H](C)[C@@H]1CC[C@H](C)[C@]1(O)C2=O,66,26.8,10.4,
CC(C)=CC(=O)[C@@]1(O)[C@@H](C)[C@@H]2CC[C@H](C)[C@H]2C(=O)[C@@]12O[C@@H](c1occc1C)C[C@H]2C,63.4,16.7,< 10,
CC(C)=C[C@H]1O[C@@](C)(CC[C@@H]2OC(=O)C=C2C)[C@@H]2C(=O)[C@@H]3[C@@H](CC[C@@H]3C)[C@H](C)[C@@]21O,37.1,,25.4,
CC(C)=CC(=O)[C@@]1(O)[C@@H](C)[C@@H]2CC[C@H](C)[C@H]2C(=O)[C@]1(O)[C@@H](C)CCc1occc1C,41.6,,< 10,
CC(C)=C[C@H]1O[C@@](C)(CC=O)C2=C1[C@@H](C)[C@@H]1CC[C@H](C)[C@]1(O)C2=O,65.4,8.48,< 10,
CC(C)=CC(=O)[C@@]1(O)[C@@H](C)[C@@H]2CC[C@H](C)[C@H]2C(=O)[C@]1(O)[C@H](C)CCc1occc1C,73.6,5.59,27.9,
CC(C)=C[C@H]1O[C@@](C)(C/C=C2\NC(=O)C=C2C)[C@@H]2C(=O)[C@@H]3[C@@H](CC[C@@H]3C)[C@H](C)[C@@]21O,56.4,19.6,13.8,
CC(C)=C[C@H]1O[C@@](C)(CCc2occc2C)C2=C1[C@@H](C)[C@@H]1CC[C@H](C)[C@]1(O)C2=O,73.7,4.94,39.8,Activity [6]: Active; Activity [7]: Dose-Dependent Effect; Activity [8]: Active; Activity [9]: Dose-Dependent Effect; Activity [10]: Active; IC50 [11]: 32.5 µM; Activity [12]: Active; Activity [13]: Active; inhibition [14]: Dose-Dependent Effect; inhibition [15]: Dose-Dependent Effect; Activity [16]: Non-Toxic
CC(C)=C[C@H]1O[C@@](C)(CC[C@@H]2OC(=O)C=C2C)C2=C1[C@@H](C)[C@@H]1CC[C@H](C)[C@]1(O)C2=O,18.7,,< 10,
CC(C)=CC1O[C@@]2(C)CC[C@]3(OC(=O)C=C3C)O[C@]13[C@H]2C(=O)[C@@]1(O)[C@@H](C)CC[C@H]1[C@@H]3C (stereo partly drawn),40.9,,< 10,
CC(C)=C[C@H]1O[C@@](C)(CC[C@@H]2OC(=O)C=C2C)[C@@H]2C(=O)[C@H]3[C@@H](CC[C@@H]3C)[C@H](C)[C@@]21O,57.6,23.6,26.7,
CC(C)=C[C@H]1O[C@@](C)(CC[C@@]2(O)OC(=O)C=C2C)C2=C1[C@@H](C)[C@@H]1CC[C@H](C)[C@@]1(O)C2=O,36.8,,< 10,
CC(C)=C[C@H]1O[C@@](C)(C/C=C2\OC(=O)C=C2C)[C@@H]2C(=O)[C@]3(O)[C@@H](C)CC[C@H]3[C@H](C)[C@@]21O,45.4,,< 10,
CC(C)=C[C@H]1O[C@@](C)(CCc2occc2C)[C@@H]2C(=O)[C@]3(O)[C@@H](C)CC[C@H]3[C@H](C)[C@@]21O,56.8,9.15,< 10,
CC(C)=C[C@H]1O[C@@](C)(CCC(=O)O)C2=C1[C@@H](C)[C@@H]1CC[C@H](C)[C@H]1C2=O,45.9,,18.2,
CC(C)=C[C@H]1O[C@@](C)(C[C@@H]2C(=O)C(C)=C[C@H]2O)[C@@H]2C(=O)[C@@]3(O)[C@@H](C)CC[C@H]3[C@H](C)[C@@]21O,65.3,11.9,11,
CC(C)=CC(=O)[C@@]1(O)[C@@H](C)[C@@H]2CC[C@H](C)[C@H]2C(=O)[C@@]12O[C@@H](c1occc1C)C[C@@H]2C,34.6,,< 10,
CC(C)=C[C@H]1O[C@@](C)(CC[C@@H]2OC(=O)C=C2C)[C@@H]2C(=O)[C@@]3(O)[C@@H](C)CC[C@H]3[C@H](C)[C@@]21O,39.1,,13.2,
CC(C)=C[C@H]1O[C@@](C)(CC[C@@H]2OC(=O)C=C2C)[C@@H]2C(=O)[C@@]3(OO)[C@@H](C)CC[C@H]3[C@H](C)[C@@]21O,29.9,,11.8,
CC(C)=CC(=O)[C@]12O[C@]3(CC[C@H](C)[C@@]1(O)C(=O)[C@H]1[C@@H](CC[C@@H]1C)[C@@H]2C)OC(=O)C=C3C,43.3,,< 10,
CC(C)=C[C@H]1O[C@@](C)(CCc2occc2C)[C@@H]2C(=O)[C@H]3[C@@H](CC[C@@H]3C)[C@H](C)[C@@]21O,63.9,9.8,12.3,
CC(C)=CC1O[C@@]2(C)CC[C@]3(OC(=O)C=C3C)O[C@]13[C@H]2C(=O)[C@H]1[C@@H](CC[C@@H]1C)[C@@H]3C (stereo partly drawn),69.4,12.6,51.5,IC50 [11]: 25.8 µM
CC(C)=C[C@H]1O[C@@](C)(CCC(=O)O)C2=C1[C@@H](C)[C@@H]1CC[C@H](C)[C@]1(O)C2=O,37.9,,20.2,
CC(C)=CC(=O)[C@@]1(O)[C@@H](C)[C@@H]2CC[C@H](C)[C@H]2C(=O)[C@]1(O)[C@H](C)CC[C@@H]1OC(=O)C=C1C,54.3,9.94,14.7,Activity [17]: Dose-Dependent Effect; Activity [18]: Active; inhibition [19]: Active; Activity [8]: Active; Activity [10]: Active; Activity [20]: Active; Activity [12]: Active; inhibition [21]: Active; Activity [16]: Non-Toxic; Activity [22]: Active
